Reference: US8895559B2, “Quinoxalines derivatives and pharmaceutical compositions and kits” (Merck Patent GmbH, priority 2010, dated 2014)

Test system: PI3K
Assay: Cellular testing of PI3K inhibitors: P-S473-PKB Luminex assay in PC3 cells
Type: cell-based
Details: PI3 kinase inhibition, cell
Description: Description of the Method for the Cellular Testing of PI3K Inhibitors
The cellular assay for determination of the P-S473-PKB level is carried out as a Luminex assay in 96-well format in PC3 cells.
PC3 cells are sown out with 20,000 cells per well in 100 μl medium (45% RPMI1460/45% Ham's F12/10% FCS) and incubated on the following day for 30 min with a serial dilution of the test substance (7 concentrations) under serum-free conditions. […] The lysates are incubated overnight at 4° C. with shaking with Luminex beads to which an anti-total PKB antibody is coupled. The detection is carried out on the following day by addition of a P-S473-PKB antibody and a species-specific PE-labelled secondary antibody. The detection of P-S473-PKB is carried out by measurement in a Luminex 100 instrument by determination of 100 events per cavity in a measurement time of 60 sec. […] The values of the preparations treated with test substance are calculated from this as percent of control, and IC50 values are determined by means of RS1.

`COc1cc(Nc2nc3ccccc3nc2NS(=O)(=O)c2ccc(F)c(F)c2)c(OCCCO)c(OC)c1` [Compound A71] was tested. Which IC50 did it give?
Its IC50 is 1 to 100 nM.

With `COc1cc(Nc2nc3ccccc3nc2NS(=O)(=O)c2ccc(C#N)cc2)c(OCC[S+]([O-])CCO)c(OC)c1` (centres unmarked) [Compound A72] as the compound, how does the IC50 read?
Its IC50 is 1 to 100 nM.

Which IC50 does the source give for `COc1cc(Nc2nc3ccccc3nc2NS(=O)(=O)c2ccc(F)c(F)c2)c(OCCOCCO)c(OC)c1` [Compound A73] here?
Its IC50 is 100 to 10000 nM.

Which IC50 does the source give for `COc1cc(Nc2nc3ccccc3nc2NS(=O)(=O)c2ccc(C#N)cc2)c(OCC(O)CO)c(OC)c1` (centres unmarked) [Compound A74] here?
Its IC50 is 1 to 100 nM.

With `COc1cc(Nc2nc3ccccc3nc2NS(=O)(=O)c2cn(C)cn2)c(OCC(O)CO)c(OC)c1` (centres unmarked) [Compound A75] as the compound, how does the IC50 read?
Its IC50 is 100 to 10000 nM.

`COc1cc(Nc2nc3ccccc3nc2NS(=O)(=O)c2ccc(C#N)cc2)c(OCCS(=O)(=O)CCO)c(OC)c1` [Compound A76] was tested. Which IC50 did it give?
The IC50 was 1 to 100 nM.

With `COc1cc(Nc2nc3ccccc3nc2NS(=O)(=O)c2cn(C)cn2)c(OCCS(=O)(=O)CCO)c(OC)c1` [Compound A77] as the compound, how does the IC50 read?
The IC50 was 100 to 10000 nM.

How did the IC50 turn out when `COc1cc(Nc2nc3ccccc3nc2NS(=O)(=O)c2ccc(C#N)cc2)c(OCCN(C)CCO)c(OC)c1` [Compound A78] was run?
Its IC50 is 1 to 100 nM.

With `COc1cc(Nc2nc3ccccc3nc2NS(=O)(=O)c2cccnc2)c(OCCCO)c(OC)c1` [Compound A79] as the compound, how does the IC50 read?
Its IC50 is 100 to 10000 nM.

`COc1cc(Nc2nc3ccccc3nc2NS(=O)(=O)c2ccc(C#N)cc2)c(OCCOCCO)c(OC)c1` [Compound A80] was tested. Which IC50 did it give?
The IC50 was 1 to 100 nM.

How did the IC50 turn out when `COc1cc(Nc2nc3ccccc3nc2NS(=O)(=O)c2cn(C)cn2)c(OCCOCCO)c(OC)c1` [Compound A81] was run?
Its IC50 is 100 to 10000 nM.

With `COc1cc(Nc2nc3ccccc3nc2NS(=O)(=O)c2ccc(C#N)cc2)c(OCCCO)c(OC)c1` [Compound A82] as the compound, how does the IC50 read?
The IC50 was 1 to 100 nM.

`COc1cc(Nc2nc3ccccc3nc2NS(=O)(=O)c2cn(C)cn2)c(OCCCO)c(OC)c1` [Compound A86] was tested. Which IC50 did it give?
Its IC50 is 1 to 100 nM.

`COc1cc(Nc2nc3ccccc3nc2NS(=O)(=O)c2cn(C)cn2)c(OCCO)c(OC)c1` [Compound A89] was tested. Which IC50 did it give?
Its IC50 is 1 to 100 nM.

With `COc1cc(Nc2nc3ccccc3nc2NS(=O)(=O)c2ccc(C(=O)N(C)C)cc2)c(OC)c(OC)c1` [Compound A90] as the compound, how does the IC50 read?
Its IC50 is 100 to 10000 nM.

Which IC50 does the source give for `COc1cc(Nc2nc3ccccc3nc2NS(=O)(=O)c2ccc(C#N)cc2)c(OC)c(OC)c1` [Compound A91] here?
The IC50 was 1 to 100 nM.

Which IC50 does the source give for `COc1cc(Nc2nc3ccccc3nc2NS(=O)(=O)c2cn(C)cn2)c(OC)c(OC)c1` [Compound A92] here?
Its IC50 is 100 to 10000 nM.

Which IC50 does the source give for `COc1cc(Nc2nc3ccccc3nc2NS(=O)(=O)c2ccc(C(=O)NCC(F)F)cc2)c(OCCCO)c(OC)c1` [Compound A93] here?
Its IC50 is 100 to 10000 nM.

`COc1cc(Nc2nc3ccccc3nc2NS(=O)(=O)c2cn(C)c(CN(C)C)n2)c(CCCCO)c(OC)c1` [Compound A94] was tested. Which IC50 did it give?
Its IC50 is 100 to 10000 nM.

With `COc1cc(Nc2nc3ccccc3nc2NS(=O)(=O)c2ccc(C(=O)NCC(F)(F)F)cc2)c(OCCCO)c(OC)c1` [Compound A95] as the compound, how does the IC50 read?
The IC50 was 100 to 10000 nM.

`COc1cc(Nc2nc3ccccc3nc2NS(=O)(=O)CCC#N)c(OCCCO)c(OC)c1` [Compound A96] was tested. Which IC50 did it give?
The IC50 was 100 to 10000 nM.

For `COc1cc(Nc2nc3ccccc3nc2NS(=O)(=O)c2cccc(C(=O)N(C)C)c2)c(OCCCO)c(OC)c1` [Compound A97], which IC50 is on record?
Its IC50 is 100 to 10000 nM.

How did the IC50 turn out when `COc1cc(Nc2nc3ccccc3nc2NS(=O)(=O)c2ccc(C(=O)N3CC(F)(F)C3)cc2)c(OCCCO)c(OC)c1` [Compound A98] was run?
Its IC50 is 100 to 10000 nM.

How did the IC50 turn out when `COc1cc(Nc2nc3ccccc3nc2NS(C)(=O)=O)c(OCCC(C)O)c(OC)c1` (centres unmarked) [Compound A99] was run?
The IC50 was 1 to 100 nM.

How did the IC50 turn out when `COc1cc(Nc2nc3ccccc3nc2NS(=O)(=O)c2ccn(C)n2)c(OCCC(C)O)c(OC)c1` (centres unmarked) [Compound A100] was run?
The IC50 was 1 to 100 nM.

For `COc1cc(Nc2nc3ccccc3nc2NS(=O)(=O)c2cncs2)c(OCCC(C)O)c(OC)c1` (centres unmarked) [Compound A101], which IC50 is on record?
The IC50 was 1 to 100 nM.

Which IC50 does the source give for `COc1cc(Nc2nc3ccccc3nc2NS(=O)(=O)c2ccc(C(=O)N3CCC3)cc2)c(OCCCO)c(OC)c1` [Compound A102] here?
Its IC50 is 1 to 100 nM.

For `COc1cc(Nc2nc3ccccc3nc2NS(=O)(=O)c2cnn(C(F)F)c2)c(OCCC(C)O)c(OC)c1` (centres unmarked) [Compound A103], which IC50 is on record?
Its IC50 is 1 to 100 nM.

For `COc1cc(Nc2nc3ccccc3nc2NS(=O)(=O)N(C)C)c(OCCCO)c(OC)c1` [Compound A104], which IC50 is on record?
Its IC50 is 1 to 100 nM.
